Results on three compounds are retold here after patent publication US20100261767A1, “OXADIAZOLE DERIVATIVES FOR USE AS S1P1 AGONISTS IN THE TREATMENT OF AUTOIMMUNE AND INFLAMMATORY DISORDERS” (priority 2007, published 2010).

Each structure is given as a SMILES string. pEC50: −log10 of the molar value. Counter-ions that a name gives are not always drawn.

One experiment addresses T1, human S1P1 receptor (Homo sapiens, UniProt P21453).
T1 construct: expressed in transfected cells; membranes
Put plainly: S1P1 GTPγS Assay. It is filed as biochemical. Particulars: human S1P1 rat hepatoma membranes, agonist. The method, then:
Membrane Preparation for S1P1 GTPγS Assay
For membrane preparations all steps were performed at 4° C. Rat hepatoma cells stably expressing the human S1P1 receptor or Rat Basophilic Leukaemia cells (RBL) stably expressing human S1P3 receptor were grown to 80% confluency before being harvested into 10 ml Phospho-Buffered Saline (PBS) and centrifuged at 1200 rpm for 5 minutes. After removal of the supernatant, the pellet was re-suspended and cells were homogenised within a glass Waring blender for 2 bursts of 15 secs in 200 mls of buffer (50 mM HEPES, 1 mM leupeptin, 25 μg/ml bacitracin, 1 mM EDTA, 1 mM PMSF, 2 μM pepstatin A). The blender was plunged into ice for 5 mins after the first burst and 10-40 mins after the final burst to allow foam to dissipate. […]
After 30 minutes pre-coupling on ice the bead and membrane suspension was dispensed into a white Greiner polypropylene LV384-well plate (5 μl/well), containing 0.1 μl of the compound. […] The final assay cocktail (10.1 μl) was then centrifuged at 1000 rpm for 5 minutes then read immediately on a Viewlux reader. […]
(§1) After 30 minutes precoupling on ice, the bead and membrane suspension was dispensed into white Greiner polypropylene LV 384-well plates (5 μl/well), containing 0.1 μl of compound. […] The final assay cocktail (10.1 μl) was then sealed, spun on a centrifuge, then read immediately on a Viewlux instrument.

For a further experiment, the target named is T2, human S1P3 receptor (Homo sapiens, UniProt Q99500).
T2 construct: expressed in transfected cells; membranes
T2 sequence (Q99500 whole entry): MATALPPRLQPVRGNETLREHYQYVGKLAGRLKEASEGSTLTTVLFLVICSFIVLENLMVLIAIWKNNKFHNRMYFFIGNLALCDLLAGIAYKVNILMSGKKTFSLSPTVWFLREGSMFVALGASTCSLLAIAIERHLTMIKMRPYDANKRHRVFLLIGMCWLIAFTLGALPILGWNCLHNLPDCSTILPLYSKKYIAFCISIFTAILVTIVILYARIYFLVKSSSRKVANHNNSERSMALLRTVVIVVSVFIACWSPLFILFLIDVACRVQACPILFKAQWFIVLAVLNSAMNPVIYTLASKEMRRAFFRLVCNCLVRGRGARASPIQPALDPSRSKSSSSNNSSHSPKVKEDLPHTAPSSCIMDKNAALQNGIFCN
Put plainly: S1P3 GTPγS Assay. It counts as biochemical. Particulars: S1P3 RBL-2H3 membranes, agonist. The method, then: For membrane preparations all steps were performed at 4° C. Rat hepatoma cells stably expressing the human S1P1 receptor or Rat Basophilic Leukaemia cells (RBL) stably expressing human S1P3 receptor were grown to 80% confluency before being harvested into 10 ml Phospho-Buffered Saline (PBS) and centrifuged at 1200 rpm for 5 minutes. After removal of the supernatant, the pellet was re-suspended and cells were homogenised within a glass Waring blender for 2 bursts of 15 secs in 200 mls of buffer (50 mM HEPES, 1 mM leupeptin, 25 μg/ml bacitracin, 1 mM EDTA, 1 mM PMSF, 2 μM pepstatin A). The blender was plunged into ice for 5 mins after the first burst and 10-40 mins after the final burst to allow foam to dissipate. The material was then spun at 500 g for 20 mins and the supernatant spun for 36 mins at 48,000 g. The pellet was resuspended in the same buffer as above but without PMSF and pepstatin A. The material was then forced through a 0.6 mm needle, made up to the required volume, (usually ×4 the volume of the original cell pellet), aliquoted and stored frozen at −80° C.
S1P3 membranes from rat basophilic leukaemia cells (RBL-2H3) (1.5 μg/well) were adhered to WGA-coated SPA beads (0.125 mg/well) in assay buffer (HEPES 20 mM, MgCl2 3 mM, NaCl 100 mM and pH adjusted to 7.4 using KOH 5M), GDP 10 μM FAC and saponin 90 μg/ml FAC was also added).
After 30 minutes pre-coupling on ice the bead and membrane suspension was dispensed into a white Greiner polypropylene LV384-well plate (5 μl/well), containing 0.1 μl of the compound. 5 μl/well [^35S]-GTPγS (0.5 nM final radioligand conc) made up in assay buffer was then added to agonist plates. The final assay cocktail (10.1 μl) was centrifuged at 1000 rpm for 5 minutes then read immediately on a Viewlux reader. […]
as §1

T1 sequence (P21453 whole entry): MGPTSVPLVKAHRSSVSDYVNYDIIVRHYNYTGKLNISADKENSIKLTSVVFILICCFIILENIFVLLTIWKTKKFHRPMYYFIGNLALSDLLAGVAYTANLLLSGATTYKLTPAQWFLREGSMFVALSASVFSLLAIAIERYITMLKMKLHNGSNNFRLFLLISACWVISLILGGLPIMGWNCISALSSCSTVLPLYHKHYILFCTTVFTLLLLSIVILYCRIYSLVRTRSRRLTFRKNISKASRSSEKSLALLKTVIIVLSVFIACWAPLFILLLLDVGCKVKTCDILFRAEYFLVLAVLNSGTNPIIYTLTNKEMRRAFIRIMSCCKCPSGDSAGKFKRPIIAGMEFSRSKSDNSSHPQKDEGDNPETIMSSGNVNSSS

Turning to `CC(C)Oc1ccc(-c2nc(-c3cccc4c3CNC4)no2)cc1C#N` [Example 1, 5-[3-(2,3-Dihydro-1H-isoindol-4-yl)-1,2,4-oxadiazol-5-yl]-2-[(1-methylethyl)oxy]benzonitrile hydrochloride], the pEC50 at human S1P1 receptor was more than 8.00; at human S1P3 receptor, less than 5.00.
The like results for `CC(C)Oc1ccc(-c2nc(-c3cccc4c3CNC4)no2)cc1Cl` [Example 2, 4-(5-{3-Chloro-4-[(1-methylethyl)oxy]phenyl}-1,2,4-oxadiazol-3-yl)-2,3-dihydro-1H-isoindole] were, in that order, more than 8.00 and less than 5.00.
On to `CC(C)Oc1ccc(-c2nc(-c3cccc4c3CN(CCCC(=O)O)C4)no2)cc1C#N` [Example 5, 4-[4-(5-{3-cyano-4-[(1-methylethyl)oxy]phenyl}-1,2,4-oxadiazol-3-yl)-1,3-dihydro-2H-isoindol-2-yl]butanoic acid], for which the pEC50 at human S1P3 receptor was less than 5.00.

What is called pEC50 is −log10 of the EC50, conventionally taken in molar units.
